In patent US20220411794A1, “RNA OLIGONUCLEOTIDES FOR PREVENTING AGGREGATION OF PROTEINS” (Universitaet Wien, priority 2019, published 2022):

Target: T1, human insulin (Homo sapiens, UniProt P01308)
T1 construct: purchased SIGMA
Experiment: Human insulin aggregation assay (relative solubility)
Assay type: physicochemical
Conditions: 86 μM insulin : 20 μM RNA (molar ratio […]:1)
Description: The insulin aggregation assay was performed in 150 mM Tris-HCl pH 7.5. Aggregation was monitored at 360 nm (excitation: 1 nm bandwidth, emission: 10 nm bandwidth) in macro-cuvettes (1500 μl) with a pathlength of 10 mm. 86 μM human insulin (SIGMA) with or without 20 μM RNA were pre-incubated at 30° C. and the aggregation reaction was started by the addition of dithiothreitol (DTT) to a final concentration of 15 mM.

T1 sequence (P01308 25-54 limits assumed): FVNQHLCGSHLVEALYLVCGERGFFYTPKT

Substance: RNA1: GUGGAGGCGCUGUACCUGGUGUGCGGAGAGCGCGGC; fragment of native own mRNA coding for insulin β-chain region VEALYLVCGERG (RNA, backbone not given here)
- increase in the relative solubility of insulin: 21%
